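Five concentrations, 48 hours, 96-well plates. TGI denotes the concentration required for complete inhibition of growth.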
Tests used:
Experiment in all cases: NCI tumour cell line growth inhibition, 48 h
HCT-15 colon = system: HCT-15 colon
SNB-19 CNS = system: SNB-19 CNS
DMS 114 small cell lung = system: DMS 114 small cell lung
NCI-H226 lung = system: NCI-H226 lung
HL-60(TB) leukemia = system: HL-60(TB) leukemia
HOP-62 NSCLC = system: HOP-62 NSCLC
M19-MEL melanoma = system: M19-MEL melanoma
M14 melanoma = system: M14 melanoma
SR leukemia = system: SR leukemia
RPMI-8226 leukemia = system: RPMI-8226 leukemia
RXF-631 renal = system: RXF-631 renal
CCRF-CEM leukemia = system: CCRF-CEM leukemia
MALME-3M melanoma = system: MALME-3M melanoma
SN12C renal = system: SN12C renal
HCT-116 colon = system: HCT-116 colon
DLD-1 colon = system: DLD-1 colon
SF-268 CNS = system: SF-268 CNS
RXF 393 renal = system: RXF 393 renal
U251 CNS = system: U251 CNS
HOP-92 NSCLC = system: HOP-92 NSCLC
UACC-62 melanoma = system: UACC-62 melanoma
UO-31 renal = system: UO-31 renal
LXFL 529 NSCLC = system: LXFL 529 NSCLC
SK-OV-3 ovarian = system: SK-OV-3 ovarian
SW-620 colon = system: SW-620 colon
KM12 colon = system: KM12 colon
COLO 205 colon = system: COLO 205 colon
ACHN renal = system: ACHN renal
HOP-18 NSCLC = system: HOP-18 NSCLC
A549 NSCLC = system: A549 NSCLC
SK-MEL-2 melanoma = system: SK-MEL-2 melanoma
DMS 273 small cell lung = system: DMS 273 small cell lung
KM20L2 colon = system: KM20L2 colon
XF 498 CNS = system: XF 498 CNS
LOX IMVI melanoma = system: LOX IMVI melanoma
SK-MEL-5 melanoma = system: SK-MEL-5 melanoma
OVCAR-5 ovarian = system: OVCAR-5 ovarian
786-0 renal = system: 786-0 renal
SK-MEL-28 melanoma = system: SK-MEL-28 melanoma
TK-10 renal = system: TK-10 renal
OVCAR-8 ovarian = system: OVCAR-8 ovarian
IGROV1 ovarian = system: IGROV1 ovarian
MOLT-4 leukemia = system: MOLT-4 leukemia
OVCAR-3 ovarian = system: OVCAR-3 ovarian
SF-539 CNS = system: SF-539 CNS
HCC-2998 colon = system: HCC-2998 colon
UACC-257 melanoma = system: UACC-257 melanoma
NCI-H23 lung = system: NCI-H23 lung
SF-295 CNS = system: SF-295 CNS
CAKI-1 renal = system: CAKI-1 renal
NCI-H522 lung = system: NCI-H522 lung
NCI-H460 lung = system: NCI-H460 lung
OVCAR-4 ovarian = system: OVCAR-4 ovarian
EKVX NSCLC = system: EKVX NSCLC
SNB-75 CNS = system: SNB-75 CNS
SNB-78 CNS = system: SNB-78 CNS
HT29 colon = system: HT29 colon
P388 leukemia = system: P388 leukemia
BT-549 breast = system: BT-549 breast
A498 renal = system: A498 renal
MDA-MB-435 = system: MDA-MB-435
P388/ADR leukemia = system: P388/ADR leukemia
DU-145 prostate = system: DU-145 prostate
MCF7 breast = system: MCF7 breast
NCI/ADR-RES ovarian = system: NCI/ADR-RES ovarian
T-47D breast = system: T-47D breast
SN12K1 renal = system: SN12K1 renal
MDA-MB-231 breast = system: MDA-MB-231 breast
HS 578T breast = system: HS 578T breast
K-562 leukemia = system: K-562 leukemia
PC-3 prostate = system: PC-3 prostate
MDA-N = system: MDA-N

## COc1ccc(CC2NCCc3cc(OC)c(OC)cc32)cc1 (stereo not drawn)
HCT-15 colon
  TGI: > 100 µM
SNB-19 CNS
  TGI: > 100 µM
DMS 114 small cell lung
  TGI: > 100 µM
NCI-H226 lung
  TGI: > 100 µM
HL-60(TB) leukemia
  TGI: > 100 µM
HOP-62 NSCLC
  TGI: > 100 µM
M19-MEL melanoma
  TGI: > 100 µM
M14 melanoma
  TGI: > 100 µM
SR leukemia
  TGI: > 100 µM
RPMI-8226 leukemia
  TGI: > 100 µM
RXF-631 renal
  TGI: > 100 µM
CCRF-CEM leukemia
  TGI: > 100 µM
MALME-3M melanoma
  TGI: > 100 µM
SN12C renal
  TGI: > 100 µM
HCT-116 colon
  TGI: > 100 µM
DLD-1 colon
  TGI: > 100 µM
SF-268 CNS
  TGI: > 100 µM
RXF 393 renal
  TGI: > 100 µM
U251 CNS
  TGI: > 100 µM
HOP-92 NSCLC
  TGI: > 100 µM
UACC-62 melanoma
  TGI: > 100 µM
UO-31 renal
  TGI: > 100 µM
LXFL 529 NSCLC
  TGI: > 100 µM
SK-OV-3 ovarian
  TGI: > 100 µM
SW-620 colon
  TGI: > 100 µM
KM12 colon
  TGI: > 100 µM
COLO 205 colon
  TGI: > 100 µM
ACHN renal
  TGI: > 100 µM
HOP-18 NSCLC
  TGI: > 100 µM
A549 NSCLC
  TGI: > 100 µM
SK-MEL-2 melanoma
  TGI: > 100 µM
DMS 273 small cell lung
  TGI: > 100 µM
KM20L2 colon
  TGI: > 100 µM
XF 498 CNS
  TGI: > 100 µM
LOX IMVI melanoma
  TGI: > 100 µM
SK-MEL-5 melanoma
  TGI: > 100 µM
OVCAR-5 ovarian
  TGI: > 100 µM
786-0 renal
  TGI: > 100 µM
SK-MEL-28 melanoma
  TGI: > 100 µM
TK-10 renal
  TGI: > 100 µM
OVCAR-8 ovarian
  TGI: > 100 µM
IGROV1 ovarian
  TGI: > 100 µM
MOLT-4 leukemia
  TGI: > 100 µM
OVCAR-3 ovarian
  TGI: > 100 µM
SF-539 CNS
  TGI: > 100 µM
HCC-2998 colon
  TGI: > 100 µM
UACC-257 melanoma
  TGI: > 100 µM
NCI-H23 lung
  TGI: > 100 µM
SF-295 CNS
  TGI: > 100 µM
CAKI-1 renal
  TGI: > 100 µM
NCI-H522 lung
  TGI: > 100 µM
NCI-H460 lung
  TGI: > 100 µM
OVCAR-4 ovarian
  TGI: > 100 µM
EKVX NSCLC
  TGI: > 100 µM
SNB-75 CNS
  TGI: > 100 µM
SNB-78 CNS
  TGI: > 100 µM
HT29 colon
  TGI: > 100 µM

## O=c1[nH]cc(N(CCCl)CCCl)c(=O)[nH]1
HCT-15 colon
  TGI: 251 µM
SNB-19 CNS
  TGI: 400 µM
DMS 114 small cell lung
  TGI: 103 µM
NCI-H226 lung
  TGI: 179 µM
HL-60(TB) leukemia
  TGI: 36.9 µM
HOP-62 NSCLC
  TGI: 81.7 µM
M19-MEL melanoma
  TGI: 175 µM
M14 melanoma
  TGI: 89.9 µM
SR leukemia
  TGI: 55.1 µM
RPMI-8226 leukemia
  TGI: 284 µM
CCRF-CEM leukemia
  TGI: 113 µM
P388 leukemia
  TGI: 66.7 µM
MALME-3M melanoma
  TGI: 106 µM
SN12C renal
  TGI: 162 µM
BT-549 breast
  TGI: 158 µM
HCT-116 colon
  TGI: 179 µM
DLD-1 colon
  TGI: 366 µM
SF-268 CNS
  TGI: 192 µM
RXF 393 renal
  TGI: 81.1 µM
A498 renal
  TGI: 191 µM
U251 CNS
  TGI: 253 µM
HOP-92 NSCLC
  TGI: 123 µM
MDA-MB-435
  TGI: 136 µM
UACC-62 melanoma
  TGI: 60.6 µM
UO-31 renal
  TGI: 201 µM
LXFL 529 NSCLC
  TGI: 187 µM
SK-OV-3 ovarian
  TGI: 183 µM
SW-620 colon
  TGI: 249 µM
P388/ADR leukemia
  TGI: 70 µM
DU-145 prostate
  TGI: 303 µM
KM12 colon
  TGI: 232 µM
COLO 205 colon
  TGI: 157 µM
ACHN renal
  TGI: 92.6 µM
HOP-18 NSCLC
  TGI: 199 µM
A549 NSCLC
  TGI: 314 µM
SK-MEL-2 melanoma
  TGI: 204 µM
MCF7 breast
  TGI: 205 µM
NCI/ADR-RES ovarian
  TGI: 160 µM
DMS 273 small cell lung
  TGI: 74.4 µM
KM20L2 colon
  TGI: 196 µM
XF 498 CNS
  TGI: 89.7 µM
LOX IMVI melanoma
  TGI: 165 µM
SK-MEL-5 melanoma
  TGI: 115 µM
OVCAR-5 ovarian
  TGI: 186 µM
786-0 renal
  TGI: 64.8 µM
SK-MEL-28 melanoma
  TGI: 204 µM
TK-10 renal
  TGI: 325 µM
OVCAR-8 ovarian
  TGI: 201 µM
T-47D breast
  TGI: 183 µM
IGROV1 ovarian
  TGI: 266 µM
SN12K1 renal
  TGI: 172 µM
MOLT-4 leukemia
  TGI: 28.3 µM
OVCAR-3 ovarian
  TGI: 223 µM
MDA-MB-231 breast
  TGI: 211 µM
SF-539 CNS
  TGI: 60.5 µM
HS 578T breast
  TGI: 301 µM
HCC-2998 colon
  TGI: 136 µM
UACC-257 melanoma
  TGI: 159 µM
NCI-H23 lung
  TGI: 97.6 µM
SF-295 CNS
  TGI: 246 µM
CAKI-1 renal
  TGI: 56.7 µM
NCI-H522 lung
  TGI: 60.9 µM
NCI-H460 lung
  TGI: 155 µM
K-562 leukemia
  TGI: 283 µM
PC-3 prostate
  TGI: 188 µM
OVCAR-4 ovarian
  TGI: 199 µM
EKVX NSCLC
  TGI: 230 µM
MDA-N
  TGI: 153 µM
SNB-75 CNS
  TGI: 162 µM
SNB-78 CNS
  TGI: 369 µM
HT29 colon
  TGI: 306 µM
